Where two headings read alike, the source gives them in different places. Each block holds one compound with its values, some of them ahead of it.
Molecular target: T1, NR2F6 (Homo sapiens, UniProt P10588)
T1 construct: expressed in transfected cells; also transient transfection
T1 sequence (P10588 1-404): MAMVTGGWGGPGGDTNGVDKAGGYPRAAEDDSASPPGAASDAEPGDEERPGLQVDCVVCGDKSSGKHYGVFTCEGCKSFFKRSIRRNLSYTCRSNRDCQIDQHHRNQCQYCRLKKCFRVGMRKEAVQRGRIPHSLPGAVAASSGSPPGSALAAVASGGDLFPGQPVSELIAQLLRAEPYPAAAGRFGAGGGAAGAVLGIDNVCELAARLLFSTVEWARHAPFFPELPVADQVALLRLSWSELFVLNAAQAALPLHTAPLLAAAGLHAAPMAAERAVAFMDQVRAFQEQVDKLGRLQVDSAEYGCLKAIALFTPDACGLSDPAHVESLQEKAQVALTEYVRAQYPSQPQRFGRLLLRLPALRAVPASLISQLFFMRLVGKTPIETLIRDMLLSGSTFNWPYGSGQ
Assay: NR2F6 agonist screening, Firefly signal cmpd/DMSO
Format: cell-based
Parameters: Firefly NR2F6 full length, cmpd/DMSO (mean) / Firefly F4, cmpd/DMSO (mean): unit of the concentration uncertain
Settings: for Firefly/Renilla (NR2F6 stable, clone F4): ratio Firefly/Renilla; for Firefly, NR2F6 stable (clone F4)/pGL4: ratio of Firefly in NR2F6 stable clone F4 to pGL4; for Firefly, cmpd repeat 1 / Firefly, cmpd repeat 2: raw signal

[1] = C11 analogs follow set (Tables 2-10)
[2] = Concentration 2 (unit uncertain)
[3] = Concentration 10 (unit uncertain)
[4] = Concentration 40 (unit uncertain)

- Firefly, cmpd/DMSO repeat 1 [1]: 20.9
- Firefly, cmpd/DMSO repeat 2 [1]: 20.6
Compound: Cc1ccc(NC(=O)c2ccc3oc(=O)c(S(=O)(=O)c4ccc(C)cc4)cc3c2)cc1 [Compound C162]

- Firefly, cmpd/DMSO (mean): 1.5
Compound: COc1cccc(-c2noc(Cn3ncc(C)c(C)c3=O)n2)c1 [Compound Z139]

- Firefly, cmpd/DMSO repeat 1 [1]: 7.6
- Firefly, cmpd/DMSO repeat 2 [1]: 7.2
- Firefly/Renilla (NR2F6 stable, clone F4) (Table 12): 3.3
- Firefly, NR2F6 stable (clone F4)/pGL4 (Table 12): 3.9
- Firefly, cmpd/DMSO repeat 1 (Table 12): 7.6
- Firefly, cmpd/DMSO repeat 2 (Table 12): 7.2
Compound: Cc1cc(S(=O)(=O)c2cc3ccccc3oc2=O)ccc1F [Compound C110]

- Firefly, cmpd/DMSO repeat 1 [1]: 3.7
- Firefly, cmpd/DMSO repeat 2 [1]: 9.6
Compound: Cc1cc(C)cc(NC(=O)c2ccc3oc(=O)c(S(=O)(=O)c4ccc(F)cc4)cc3c2)c1 [Compound C176]

- Firefly, cmpd/DMSO repeat 1 [1]: 3.9
- Firefly, cmpd/DMSO repeat 2 [1]: 2.1
Compound: CCN(CC)c1ccc2cc(S(=O)(=O)c3ccc(Cl)cc3)c(=O)oc2c1 [Compound C279]

- Firefly, cmpd/DMSO (mean): 1.8
Compound: COc1ccc(-c2noc(Cn3nccc(Cl)c3=O)n2)cc1 [Compound Z141]

- Firefly, cmpd/DMSO repeat 1 [1]: 2.0
- Firefly, cmpd/DMSO repeat 2 [1]: 1.4
Compound: COc1ccc2cc(S(=O)(=O)c3ccc(C)c(Cl)c3)c(=O)oc2c1 [Compound C261]

- Firefly, cmpd/DMSO repeat 1 (Table 9): 1.1
- Firefly, cmpd/DMSO repeat 2 (Table 9): 1.0
Compound: COc1cccc(S(=O)(=O)c2cc3cccc(OC)c3oc2=O)c1 [Compound C226]

- Firefly, cmpd/DMSO repeat 1 (Table 9): 2.2
- Firefly, cmpd/DMSO repeat 2 (Table 9): 1.8
Compound: COc1cccc2cc(S(=O)(=O)c3ccc(C(C)(C)C)cc3)c(=O)oc12 [Compound C234]

- Firefly, cmpd/DMSO repeat 1 [1]: 4.5
- Firefly, cmpd/DMSO repeat 2 [1]: 4.7
Compound: O=C(NCCc1ccccc1)c1ccc2oc(=O)c(S(=O)(=O)c3ccc(Cl)cc3)cc2c1 [Compound C114]

- Firefly, cmpd/DMSO repeat 1 (Table 9): 8.6
- Firefly, cmpd/DMSO repeat 2 (Table 9): 4.3
- Firefly/Renilla (NR2F6 stable, clone F4) (Table 12): 2.8
- Firefly, NR2F6 stable (clone F4)/pGL4 (Table 12): 4.6
- Firefly, cmpd/DMSO repeat 1 (Table 12): 8.6
- Firefly, cmpd/DMSO repeat 2 (Table 12): 4.3
Compound: CCOc1cccc2cc(S(=O)(=O)c3ccc(OC)c(OC)c3)c(=O)oc12 [Compound C248]

- Firefly, cmpd/DMSO repeat 1 [1]: 11.8
- Firefly, cmpd/DMSO repeat 2 [1]: 11.4
Compound: Cc1ccc(S(=O)(=O)c2cc3cc(C(=O)Nc4ccc(C)c(C)c4)ccc3oc2=O)cc1 [Compound C168]

- Firefly, cmpd/DMSO repeat 1 [1]: 2.4
- Firefly, cmpd/DMSO repeat 2 [1]: 3.0
Compound: CCN(CC)c1ccc2cc(S(=O)(=O)c3ccc(Br)cc3)c(=O)oc2c1 [Compound C278]

- Firefly, cmpd/DMSO repeat 1 [1]: 1.1
- Firefly, cmpd/DMSO repeat 2 [1]: 1.4
Compound: COc1cccc(S(=O)(=O)c2cc3cc(Cl)ccc3oc2=O)c1 [Compound C184]

- Firefly, cmpd/DMSO repeat 1 [1]: 4.5
- Firefly, cmpd/DMSO repeat 2 [1]: 3.1
Compound: COc1ccc2cc(S(=O)(=O)c3ccc(Cl)c(Cl)c3)c(=O)oc2c1 [Compound C272]

- Firefly, cmpd/DMSO repeat 1 (Table 11): 8.5
- Firefly, cmpd/DMSO repeat 2 (Table 11): 11.9
Compound: O=c1oc2c(F)cc(F)cc2cc1S(=O)(=O)c1ccc(Cl)cc1 [Compound C293]

- Firefly F4, cmpd/DMSO (mean) [2]: 1.3
- Firefly NR2F6 full length, cmpd/DMSO (mean) [2]: 1.2
- Firefly F4, cmpd/DMSO (mean) [3]: 1.1
- Firefly NR2F6 full length, cmpd/DMSO (mean) [3]: 0.8
- Firefly F4, cmpd/DMSO (mean) [4]: 0.8
- Firefly NR2F6 full length, cmpd/DMSO (mean) [4]: 1.1
Compound: COc1ccc(Cl)cc1S(=O)(=O)NCc1nc2nc(C)cc(C)n2n1 [Compound E15]

- Firefly, cmpd/DMSO repeat 1 [1]: 0.8
- Firefly, cmpd/DMSO repeat 2 [1]: 0.9
Compound: COc1ccc2oc(=O)c(S(=O)(=O)c3ccc(Br)cc3)cc2c1 [Compound C208]

- Firefly, cmpd/DMSO repeat 1 (Table 9): 1.1
- Firefly, cmpd/DMSO repeat 2 (Table 9): 1.1
Compound: COc1cccc2cc(S(=O)(=O)c3ccc(C)c(C)c3)c(=O)oc12 [Compound C242]

- Firefly, cmpd/DMSO repeat 1 (Table 9): 2.2
- Firefly, cmpd/DMSO repeat 2 (Table 9): 1.6
Compound: COc1ccc(S(=O)(=O)c2cc3cccc(OC)c3oc2=O)cc1OC [Compound C247]

- Firefly F4, cmpd/DMSO (mean) [2]: 1.0
- Firefly NR2F6 full length, cmpd/DMSO (mean) [2]: 1.3
- Firefly F4, cmpd/DMSO (mean) [3]: 1.3
- Firefly NR2F6 full length, cmpd/DMSO (mean) [3]: 1.2
- Firefly F4, cmpd/DMSO (mean) [4]: 1.3
- Firefly NR2F6 full length, cmpd/DMSO (mean) [4]: 0.9
Compound: Cc1ccc(S(=O)(=O)N(Cc2nc3nc(C)c(S)c(C)n3n2)c2ccccc2)cc1 [Compound E57]

- Firefly, cmpd/DMSO repeat 1 [1]: 3.1
- Firefly, cmpd/DMSO repeat 2 [1]: 4.2
- Firefly/Renilla (NR2F6 stable, clone F4) (Table 13): 3.6
- Firefly, NR2F6 stable (clone F4)/pGL4 (Table 13): 3.1
- Firefly, cmpd/DMSO repeat 1 (Table 13): 3.1
- Firefly, cmpd/DMSO repeat 2 (Table 13): 4.2
Compound: COc1ccc2oc(=O)c(S(=O)(=O)c3ccc(C(C)(C)C)cc3)cc2c1 [Compound C209]

- Firefly, cmpd/DMSO repeat 1 [1]: 10.6
- Firefly, cmpd/DMSO repeat 2 [1]: 6.3
- Firefly/Renilla (NR2F6 stable, clone F4) (Table 13): 1.3
- Firefly, NR2F6 stable (clone F4)/pGL4 (Table 13): 6.6
- Firefly, cmpd/DMSO repeat 1 (Table 13): 10.6
- Firefly, cmpd/DMSO repeat 2 (Table 13): 6.3
Compound: O=c1oc2ccc(Cl)cc2cc1S(=O)(=O)c1cc(F)cc(F)c1 [Compound C194]

- Firefly, cmpd/DMSO repeat 1 (Table 11): 31.3
- Firefly, cmpd/DMSO repeat 2 (Table 11): 15.6
- Firefly/Renilla (NR2F6 stable, clone F4) (Table 12): 2.0
- Firefly, NR2F6 stable (clone F4)/pGL4 (Table 12): 15.3
- Firefly, cmpd/DMSO repeat 1 (Table 12): 31.3
- Firefly, cmpd/DMSO repeat 2 (Table 12): 15.6
Compound: COc1ccc(S(=O)(=O)c2cc3cc(F)cc(F)c3oc2=O)cc1 [Compound C289]

- Firefly, cmpd/DMSO repeat 1 [1]: 14.0
- Firefly, cmpd/DMSO repeat 2 [1]: 13.6
- Firefly/Renilla (NR2F6 stable, clone F4) (Table 13): 1.6
- Firefly, NR2F6 stable (clone F4)/pGL4 (Table 13): 9.6
- Firefly, cmpd/DMSO repeat 1 (Table 13): 14.0
- Firefly, cmpd/DMSO repeat 2 (Table 13): 13.6
Compound: O=c1oc2ccc(F)cc2cc1S(=O)(=O)c1ccc(F)cc1 [Compound C213]

- Firefly, cmpd/DMSO repeat 1 (Table 9): 1.4
- Firefly, cmpd/DMSO repeat 2 (Table 9): 1.5
Compound: COc1ccc(OC)c(S(=O)(=O)c2cc3cccc(OC)c3oc2=O)c1 [Compound C249]

- Firefly, cmpd/DMSO repeat 1 [1]: 0.9
- Firefly, cmpd/DMSO repeat 2 [1]: 1.2
Compound: O=C(Nc1ccc(Cl)cc1)c1ccc2oc(=O)c(S(=O)(=O)c3ccc(F)cc3)cc2c1 [Compound C129]

- Firefly, cmpd/DMSO repeat 1 (Table 9): 3.2
- Firefly, cmpd/DMSO repeat 2 (Table 9): 2.4
Compound: CCOc1ccc(S(=O)(=O)c2cc3cccc(OCC)c3oc2=O)cc1 [Compound C252]

- Firefly, cmpd/DMSO repeat 1 [1]: 4.5
- Firefly, cmpd/DMSO repeat 2 [1]: 5.1
Compound: Cc1cc(S(=O)(=O)c2cc3cc(Br)ccc3oc2=O)ccc1F [Compound C223]

- Firefly, cmpd/DMSO repeat 1 [1]: 0.7
- Firefly, cmpd/DMSO repeat 2 [1]: 1.1
Compound: COc1ccc2cc(S(=O)(=O)c3ccc(F)c(C)c3)c(=O)oc2c1 [Compound C282]

- Firefly, cmpd/DMSO repeat 1 [1]: 2.5
- Firefly, cmpd/DMSO repeat 2 [1]: 2.8
Compound: COc1ccc(S(=O)(=O)c2cc3cc(OC)ccc3oc2=O)cc1 [Compound C207]

- Firefly, cmpd/DMSO repeat 1 [1]: 3.8
- Firefly, cmpd/DMSO repeat 2 [1]: 3.4
Compound: N#Cc1cccc(S(=O)(=O)c2cc3cc(Br)ccc3oc2=O)c1 [Compound C196]

- Firefly, cmpd/DMSO repeat 1 [1]: 2.6
- Firefly, cmpd/DMSO repeat 2 [1]: 2.5
Compound: COc1ccc2cc(S(=O)(=O)c3ccc(F)c(Cl)c3)c(=O)oc2c1 [Compound C275]

- Firefly, cmpd/DMSO (mean) (mean of repeats): 3.5
- Firefly, cmpd repeat 1: 236
- Firefly, cmpd repeat 2: 166
- Firefly, cmpd/DMSO repeat 1: 4.0
- Firefly, cmpd/DMSO repeat 2: 3.0
- activity (in words) (screening result): good activity
Compound: COc1ccc(NC(=O)c2ccc3nc(-c4ccccc4)cn3c2)c(OC)c1 [Compound P1]

- Firefly, cmpd/DMSO repeat 1 [1]: 1.4
- Firefly, cmpd/DMSO repeat 2 [1]: 1.7
Compound: COc1ccc2cc(S(=O)(=O)c3ccc(Br)cc3)c(=O)oc2c1 [Compound C267]

- Firefly, cmpd/DMSO repeat 1 [1]: 35.4
- Firefly, cmpd/DMSO repeat 2 [1]: 39.0
- Firefly/Renilla (NR2F6 stable, clone F4) (Table 13): 1.3
- Firefly, NR2F6 stable (clone F4)/pGL4 (Table 13): 8.1
- Firefly, cmpd/DMSO repeat 1 (Table 13): 35.4
- Firefly, cmpd/DMSO repeat 2 (Table 13): 39.0
Compound: Cc1ccc(NC(=O)c2ccc3oc(=O)c(S(=O)(=O)c4ccccc4)cc3c2)cc1 [Compound C161]

- Firefly, cmpd/DMSO repeat 1 [1]: 1.2
- Firefly, cmpd/DMSO repeat 2 [1]: 1.2
Compound: O=c1oc2ccc(Br)cc2cc1S(=O)(=O)c1cccc(F)c1 [Compound C183]

- Firefly F4, cmpd/DMSO (mean) [2]: 0.9
- Firefly NR2F6 full length, cmpd/DMSO (mean) [2]: 1.1
- Firefly F4, cmpd/DMSO (mean) [3]: 0.9
- Firefly NR2F6 full length, cmpd/DMSO (mean) [3]: 1.0
- Firefly F4, cmpd/DMSO (mean) [4]: 0.8
- Firefly NR2F6 full length, cmpd/DMSO (mean) [4]: 1.0
Compound: COc1ccc(OC)c(S(=O)(=O)NCc2nc3nc(C)cc(C)n3n2)c1 [Compound E4]

- Firefly, cmpd/DMSO repeat 1 [1]: 11.6
- Firefly, cmpd/DMSO repeat 2 [1]: 13.8
Compound: O=c1oc2ccc(F)cc2cc1S(=O)(=O)c1ccc(Br)cc1 [Compound C215]

- Firefly, cmpd/DMSO (mean) (mean of repeats): 5.1
- Firefly, cmpd repeat 1: 310
- Firefly, cmpd repeat 2: 252
- Firefly, cmpd/DMSO repeat 1: 5.6
- Firefly, cmpd/DMSO repeat 2: 4.6
Compound: Cc1cc(C)nc(Sc2nnc(-c3ccc(C)c(S(=O)(=O)N4CCOCC4)c3)c3ccccc23)n1 [Compound F1]

- Firefly, cmpd/DMSO repeat 1 [1]: 2.8
- Firefly, cmpd/DMSO repeat 2 [1]: 2.2
Compound: Cc1ccc(S(=O)(=O)c2cc3cc(Br)ccc3oc2=O)cc1Cl [Compound C189]

- Firefly, cmpd/DMSO repeat 1 [1]: 13.5
- Firefly, cmpd/DMSO repeat 2 [1]: 17.1
- Firefly/Renilla (NR2F6 stable, clone F4) (Table 13): 1.1
- Firefly, NR2F6 stable (clone F4)/pGL4 (Table 13): 5.9
- Firefly, cmpd/DMSO repeat 1 (Table 13): 13.5
- Firefly, cmpd/DMSO repeat 2 (Table 13): 17.1
Compound: O=C(NCc1ccc(F)cc1)c1ccc2oc(=O)c(S(=O)(=O)c3ccc(F)cc3)cc2c1 [Compound C118]
